Results reported in patent US8871753B2, “Macrocyclic compounds and their use as kinase inhibitors” (Incyte Corporation, priority 2008, dated 2014).
Where a name gives a salt, the structure may show the parent alone. Read-outs that look alike come from different tables or passages of the source.

Columns and labels:
Format in all cases: biochemical
[1] = target: TYK2 (Homo sapiens, UniProt P29597); assay: TYK2 kinase inhibition (Table A1)
[2] = target: T1, human JAK2 (a.a. 828-1132) (Homo sapiens, UniProt O60674); assay: In vitro JAK kinase assay (HTRF, phosphorylation of a biotinylated peptide), JAK2
T1 construct: JAK2 (a.a. 828-1132); His tag (N); made in house; host or cells: insect cells (baculovirus)
T1 sequence (O60674 828-1132): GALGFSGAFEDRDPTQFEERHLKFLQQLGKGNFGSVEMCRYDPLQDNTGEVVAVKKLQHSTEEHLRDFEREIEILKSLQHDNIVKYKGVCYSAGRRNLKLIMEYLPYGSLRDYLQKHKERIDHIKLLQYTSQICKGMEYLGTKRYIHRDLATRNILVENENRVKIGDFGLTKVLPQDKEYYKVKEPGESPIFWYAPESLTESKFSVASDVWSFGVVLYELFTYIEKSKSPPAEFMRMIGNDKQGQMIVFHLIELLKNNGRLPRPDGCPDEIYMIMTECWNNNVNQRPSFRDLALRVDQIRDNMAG
Method in brief: (§1)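 Kinase activity was measured as phosphorylation of a biotinylated peptide, with ATP at 90 μM for JAK1, 30 μM for JAK2 and 3 μM for JAK3. Reactions ran 1 hr at room temperature, were stopped with EDTA plus SA-APC and Eu-Py20, and were read by HTRF after 40 minutes of antibody binding.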

[3] = target: T2, human JAK1 (a.a. 837-1142) (Homo sapiens, UniProt P23458); assay: In vitro JAK kinase assay (HTRF, phosphorylation of a biotinylated peptide), JAK1; conditions: read-out: JAK1 IC50
T2 construct: human JAK1 (a.a. 837-1142); His tag (N); made in house; host or cells: insect cells (baculovirus)
T2 sequence (P23458 849-1154): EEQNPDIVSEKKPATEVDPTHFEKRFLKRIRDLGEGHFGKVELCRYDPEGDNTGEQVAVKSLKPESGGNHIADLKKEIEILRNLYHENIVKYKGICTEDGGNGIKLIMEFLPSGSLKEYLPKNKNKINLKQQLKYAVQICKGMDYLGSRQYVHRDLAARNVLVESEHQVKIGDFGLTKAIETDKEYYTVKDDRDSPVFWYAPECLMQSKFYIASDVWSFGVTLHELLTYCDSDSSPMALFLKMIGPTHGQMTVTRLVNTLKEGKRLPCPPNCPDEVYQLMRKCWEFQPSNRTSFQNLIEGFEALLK
Method in brief: as §1

[4] = target: T3, Recombinant Human Anaplastic Lymphoma Kinase (Homo sapiens, UniProt Q9UM73); assay: ALK HTRF kinase assay
T3 construct: purchased Invitrogen, Carlsbad, Calif
T3 sequence (Q9UM73 19-1620): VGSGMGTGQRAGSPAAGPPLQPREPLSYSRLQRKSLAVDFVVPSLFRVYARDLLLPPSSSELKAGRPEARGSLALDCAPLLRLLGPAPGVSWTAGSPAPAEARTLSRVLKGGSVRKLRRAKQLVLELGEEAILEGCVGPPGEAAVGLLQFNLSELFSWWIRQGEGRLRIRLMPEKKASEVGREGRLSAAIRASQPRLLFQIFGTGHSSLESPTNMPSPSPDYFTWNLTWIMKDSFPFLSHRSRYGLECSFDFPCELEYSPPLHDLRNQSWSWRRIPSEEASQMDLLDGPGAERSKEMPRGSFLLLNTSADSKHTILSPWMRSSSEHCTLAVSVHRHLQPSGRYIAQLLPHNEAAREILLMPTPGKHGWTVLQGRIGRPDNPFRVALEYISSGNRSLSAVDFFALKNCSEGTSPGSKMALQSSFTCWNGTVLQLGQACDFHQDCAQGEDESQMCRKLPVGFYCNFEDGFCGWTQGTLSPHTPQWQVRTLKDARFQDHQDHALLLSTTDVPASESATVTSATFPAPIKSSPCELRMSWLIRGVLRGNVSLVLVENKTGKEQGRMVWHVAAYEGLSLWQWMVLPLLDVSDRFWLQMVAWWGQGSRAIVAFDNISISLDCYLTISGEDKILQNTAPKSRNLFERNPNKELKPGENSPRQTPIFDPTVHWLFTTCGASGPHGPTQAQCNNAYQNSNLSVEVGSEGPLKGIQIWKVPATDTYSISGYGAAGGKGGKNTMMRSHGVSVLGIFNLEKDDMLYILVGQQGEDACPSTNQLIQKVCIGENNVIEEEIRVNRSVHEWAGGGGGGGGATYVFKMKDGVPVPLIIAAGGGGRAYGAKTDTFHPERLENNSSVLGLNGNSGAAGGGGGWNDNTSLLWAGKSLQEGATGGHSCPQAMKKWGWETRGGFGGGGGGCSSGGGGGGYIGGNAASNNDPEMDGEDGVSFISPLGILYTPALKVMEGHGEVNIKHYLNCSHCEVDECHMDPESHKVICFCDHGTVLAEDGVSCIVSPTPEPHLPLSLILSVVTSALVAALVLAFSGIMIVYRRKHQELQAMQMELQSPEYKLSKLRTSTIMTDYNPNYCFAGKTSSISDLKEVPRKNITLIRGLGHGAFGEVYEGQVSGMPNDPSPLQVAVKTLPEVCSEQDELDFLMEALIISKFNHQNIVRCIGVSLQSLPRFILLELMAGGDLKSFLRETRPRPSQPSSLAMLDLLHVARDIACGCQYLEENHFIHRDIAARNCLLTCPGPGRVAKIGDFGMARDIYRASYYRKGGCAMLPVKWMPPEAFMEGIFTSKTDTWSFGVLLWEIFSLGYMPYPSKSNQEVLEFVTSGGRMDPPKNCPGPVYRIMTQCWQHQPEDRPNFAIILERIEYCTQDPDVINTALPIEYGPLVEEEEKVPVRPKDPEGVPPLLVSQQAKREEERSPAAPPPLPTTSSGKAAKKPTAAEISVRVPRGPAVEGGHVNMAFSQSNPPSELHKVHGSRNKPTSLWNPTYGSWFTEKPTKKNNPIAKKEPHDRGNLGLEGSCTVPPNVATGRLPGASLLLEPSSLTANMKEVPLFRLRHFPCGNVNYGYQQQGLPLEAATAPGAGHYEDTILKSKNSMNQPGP
Method in brief: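 TR-FRET read-out (Eu anti-pTyr antibody + streptavidin-APC) of biotin-peptide phosphorylation by recombinant human enzyme; IC50 by sigmoidal fit with top/bottom baselines and Hill slope.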

[5] = target: T4, human JAK3 (a.a. 781-1124) (Homo sapiens, UniProt P52333); assay: In vitro JAK kinase assay (HTRF, phosphorylation of a biotinylated peptide), JAK3
T4 construct: JAK3 (a.a. 781-1124); His tag (N); made in house; host or cells: insect cells (baculovirus)
T4 sequence (P52333 781-1124): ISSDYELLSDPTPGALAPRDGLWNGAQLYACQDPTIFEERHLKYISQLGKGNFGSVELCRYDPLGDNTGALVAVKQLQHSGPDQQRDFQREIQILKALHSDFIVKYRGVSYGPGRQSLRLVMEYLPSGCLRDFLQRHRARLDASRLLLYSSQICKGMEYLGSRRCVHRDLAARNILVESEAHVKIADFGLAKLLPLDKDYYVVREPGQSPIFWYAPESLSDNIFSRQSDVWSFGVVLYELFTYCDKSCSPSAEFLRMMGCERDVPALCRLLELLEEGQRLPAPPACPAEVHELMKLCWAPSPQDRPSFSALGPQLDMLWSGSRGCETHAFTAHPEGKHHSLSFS
Method in brief: as §1

[6] = method AA1 (30 μM ATP) or AA2 (1000 μM ATP), not stated per value
[7] = method AA1 (90 μM ATP) or AA2 (1000 μM ATP), not stated per value
[8] = compound at 500 nM or 1 mM, 90 μM ATP
[9] = method AA1 (3 μM ATP) or AA2 (1000 μM ATP), not stated per value
[10] = compound at a concentration of 500 nM or 1 mM (not specified), cells shown as percentage
[11] = Table B1, cells without percent sign

TYK2, sequence (P29597 whole entry): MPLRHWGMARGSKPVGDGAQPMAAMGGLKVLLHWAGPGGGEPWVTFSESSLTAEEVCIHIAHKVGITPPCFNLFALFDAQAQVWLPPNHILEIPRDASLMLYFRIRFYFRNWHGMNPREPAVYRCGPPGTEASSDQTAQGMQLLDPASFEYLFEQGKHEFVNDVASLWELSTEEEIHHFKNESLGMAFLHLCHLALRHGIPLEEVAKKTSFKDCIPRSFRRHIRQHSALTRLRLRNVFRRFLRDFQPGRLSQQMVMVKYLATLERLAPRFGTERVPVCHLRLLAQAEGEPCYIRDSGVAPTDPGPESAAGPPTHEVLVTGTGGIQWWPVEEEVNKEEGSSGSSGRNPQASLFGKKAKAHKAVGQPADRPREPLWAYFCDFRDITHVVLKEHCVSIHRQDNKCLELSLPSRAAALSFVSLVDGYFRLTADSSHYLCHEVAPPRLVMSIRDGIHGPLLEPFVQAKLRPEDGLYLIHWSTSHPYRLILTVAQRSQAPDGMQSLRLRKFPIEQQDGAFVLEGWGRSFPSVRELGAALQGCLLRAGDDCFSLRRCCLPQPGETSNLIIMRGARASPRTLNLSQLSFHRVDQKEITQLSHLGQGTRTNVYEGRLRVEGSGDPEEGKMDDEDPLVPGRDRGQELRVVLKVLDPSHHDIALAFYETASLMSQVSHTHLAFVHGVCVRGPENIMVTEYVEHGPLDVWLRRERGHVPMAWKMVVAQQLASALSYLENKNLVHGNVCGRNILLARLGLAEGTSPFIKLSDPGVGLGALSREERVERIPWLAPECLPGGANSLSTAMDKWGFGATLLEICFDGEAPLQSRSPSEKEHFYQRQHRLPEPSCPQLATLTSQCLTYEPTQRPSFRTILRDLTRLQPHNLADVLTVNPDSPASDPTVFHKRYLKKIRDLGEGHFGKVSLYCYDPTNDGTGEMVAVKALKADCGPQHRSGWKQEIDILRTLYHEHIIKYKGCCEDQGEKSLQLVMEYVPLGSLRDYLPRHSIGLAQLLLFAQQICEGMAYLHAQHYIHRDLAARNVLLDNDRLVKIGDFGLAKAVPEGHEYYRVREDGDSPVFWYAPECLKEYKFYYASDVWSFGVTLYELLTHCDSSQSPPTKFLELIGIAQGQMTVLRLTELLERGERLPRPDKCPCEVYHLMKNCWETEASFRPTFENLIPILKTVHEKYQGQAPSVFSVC

SMILES | IC50 [1] | IC50 [2, 6] | IC50 [3, 7] | IC50 [5, 9] | IC50 ([1]; Table B1) | IC50 ([2]; Table B1) | IC50 ([3]; Table B1) | IC50 ([5]; Table B1) | other results
COc1ccc(NC(=O)N2CCC(CC(=O)Nc3ccc4cc3CCc3cncc(c3)Nc3ncc(Cl)c(n3)N4)CC2)cc1 [Example A154, 4-(2-{[6-Chloro-2,4,8,18,22-pentaazatetracyclo[14.3.1.1(3,7).1(9,13)]docosa-1(20),3(22),4,6,9(21),10,12,16,18-nonaen-12-yl]amino}-2-oxoethyl)-N-(4-methoxyphenyl)piperidine-1-carboxamide bis(trifluoroacetate)] | 3.1 nM | 2.6 nM | 0.6 nM | > 100 nM | – | – | – | – | ALK % of inhibition at a concentration of 500 nM or 1 mM [4, 8]: 51%
Cc1noc(C)c1NC(=O)N1CCC(CC(=O)Nc2ccc3cc2CCc2cncc(c2)Nc2ncc(Cl)c(n2)N3)CC1 [Example A145, 4-(2-{[6-Chloro-2,4,8,18,22-pentaazatetracyclo[14.3.1.1(3,7).1(9,13)]docosa-1(20),3(22),4,6,9(21),10,12,16,18-nonaen-12-yl]amino}-2-oxoethyl)-N-(3,5-dimethylisoxazol-4-yl)piperidine-1-carboxamide bis(trifluoroacetate)] | 43 nM | 30 nM | 16 nM | > 100 nM | – | – | – | – | ALK % of inhibition at a concentration of 500 nM or 1 mM ([4]; compound at 500 nM or 1 mM, 90 μM ATP, bis(trifluoroacetate)): 21%
Cc1cc(C(=O)N2CCN(CC(=O)Nc3ccc4cc3CCc3cccc(c3)Nc3ncc(Cl)c(n3)N4)CC2)no1 [Example A123, N-[6-Chloro-2,4,8,22-tetraazatetracyclo[14.3.1.1(3,7).1(9,13)]docosa-1(20),3(22),4,6,9(21),10,12,16,18-nonaen-12-yl]-2-{4-[(5-methylisoxazol-3-yl)carbonyl]piperazin-1-yl}acetamide bis(trifluoroacetate)] | 8.3 nM | 9.6 nM | 7.2 nM | 68 nM | – | – | – | – | ALK % of inhibition at a concentration of 500 nM or 1 mM [4, 8]: 26%
Clc1cnc2nc1Nc1cccc(c1)CCCc1cccc(c1)N2 [Example A4, 6-Chloro-2,4,8,23-tetraazatetracyclo[15.3.1.1(3,7).1(9,13)]tricosa-1(21),3(23),4,6,9(22),10,12,17,19-nonaene] | > 100 nM | 54 nM | 87 nM | 45 nM | – | – | – | – | IC50 ([4]; 90 μM ATP): 925 nM
Clc1cnc2nc1Nc1cccc(c1)SCCNc1cccc(c1)N2 [Example D80, 6-Chloro-14-thia-2,4,8,17,24-pentaazatetracyclo[16.3.1.1(3,7).1(9,13)]tetracosa-1(22),3(24),4,6,9(23),10,12,18,20-nonaene bis(trifluoroacetate)] | – | – | – | – | – | – | – | – | IC50 ([1]; Table D1): 8.8 nM; IC50 ([2]; Table D1): 4.9 nM; IC50 ([3]; Table D1): 7.4 nM; IC50 ([4]; Table D1, 90 μM ATP): 570 nM; IC50 ([5]; Table D1): 23 nM
O=C(CN1CCNCC1)Nc1ccc2cc1CCc1cncc(c1)Nc1ncc(Cl)c(n1)N2 [Example A115, N-[6-Chloro-2,4,8,18,22-pentaazatetracyclo[14.3.1.1(3,7).1(9,13)]docosa-1(20),3(22),4,6,9(21),10,12,16,18-nonaen-12-yl]-2-piperazin-1-acetamide tetrakis(trifluoroacetate)] | 45 nM | 42 nM | 34 nM | 300 nM | – | – | – | – | ALK % of inhibition at a concentration of 500 nM or 1 mM [4, 8]: 20%
O=C(CCNC(=O)Nc1ccccc1)Nc1ccc2cc1CCc1cccc(c1)Nc1ncc(Cl)c(n1)N2 [Example A67, 3-[(Anilinocarbonyl)amino]-N-[6-chloro-2,4,8,22-tetraazatetracyclo[14.3.1.1(3,7).1(9,13)]docosa-1(20),3(22),4,6,9(21),10,12,16,18-nonaen-12-yl]propanamide trifluoroacetate] | 10 nM | 2.8 nM | 8 nM | 7.7 nM | – | – | – | – | ALK % of inhibition at a concentration of 500 nM or 1 mM [4, 8]: 40%
CC(=O)N1Cc2cccc(c2)Nc2ncc(Cl)c(n2)Nc2cccc(c2)C1 [Example D74, 15-Acetyl-6-chloro-2,4,8,15,23-pentaazatetracyclo[15.3.1.1(3,7).1(9,13)]tricosa-1(21),3(23),4,6,9(22),10,12,17,19-nonaene trifluoroacetate] | – | – | – | – | – | – | – | – | IC50 ([1]; Table D1): 343 nM; IC50 ([2]; Table D1): 83 nM; IC50 ([3]; Table D1): 160 nM; IC50 ([4]; Table D1, 90 μM ATP): > 1000 nM; IC50 ([5]; Table D1): 225 nM
COc1ccc(S(=O)(=O)N2CCC(CC(=O)Nc3ccc4cc3CCc3cncc(c3)Nc3ncc(Cl)c(n3)N4)CC2)cc1 [Example A197, N-[6-Chloro-2,4,8,18,22-pentaazatetracyclo[14.3.1.1(3,7).1(9,13)]docosa-1(20),3(22),4,6,9(21),10,12,16,18-nonaen-12-yl]-2-{1-[(4-methoxyphenyl)sulfonyl]piperidin-4-yl}acetamide bis(trifluoroacetate)] | > 200 nM | > 200 nM | 30 nM | > 200 nM | – | – | – | – | ALK % of inhibition at a concentration of 500 nM or 1 mM [4, 8]: 39%

Second part, led by results:

IC50 [1] | IC50 [2, 6] | IC50 [3, 7] | IC50 [5, 9] | IC50 ([1]; Table B1) | IC50 ([2]; Table B1) | IC50 ([3]; Table B1) | IC50 ([5]; Table B1) | SMILES | other results
– | – | – | – | 62 nM | 27 nM | 15 nM | 124 nM | CC(C)(C)OC(=O)N1CC[C@@H](NC(=O)Nc2ccc3cc2CCc2cccc(c2)Nc2ncc(Cl)c(n2)N3)C1 [Example B174, tert-Butyl (3R)-3-[({[6-chloro-2,4,8,22-tetraazatetracyclo[14.3.1.1(3,7).1(9,13)]docosa-1(20),3(22),4,6,9(21),10,12,16,18-nonaen-12-yl]amino}carbonyl)amino]pyrrolidine-1-carboxylate] | ALK % of inhibition at a concentration of 500 nM or 1 mM [4, 10]: 12%
– | – | – | – | 17 nM | 7.4 nM | 3.6 nM | 39 nM | CC(C)(C)OC(=O)N1CC[C@H](NC(=O)Nc2ccc3cc2CCc2cccc(c2)Nc2ncc(Cl)c(n2)N3)C1 [Example B166, tert-Butyl (3S)-3-[({[6-chloro-2,4,8,22-tetraazatetracyclo[14.3.1.1(3,7).1(9,13)]docosa-1(20),3(22),4,6,9(21),10,12,16,18-nonaen-12-yl]amino}carbonyl)amino]pyrrolidine-1-carboxylate] | ALK % of inhibition at a concentration of 500 nM or 1 mM [4, 10]: 15%
– | – | – | – | 46 nM | 15 nM | 16 nM | 41 nM | O=C(Nc1cc2cc(c1)Nc1nc(ncc1Cl)Nc1cccc(c1)CC2)c1ccno1 [Example B206, N-[6-Chloro-2,4,8,22-tetraazatetracyclo[14.3.1.1(3,7).1(9,13)]docosa-1(20),3(22),4,6,9(21),10,12,16,18-nonaen-11-yl]isoxazole-5-carboxamide trifluoroacetate] | IC50 [4, 11]: > 10000 nM
– | – | – | – | 165 nM | 44 nM | 107 nM | 83 nM | COC(=O)c1cc2cc(c1)Nc1nc(ncc1Cl)Nc1cccc(c1)CC2 [Example B5, Methyl 6-chloro-2,4,8,22-tetraazatetracyclo[14.3.1.1(3,7).1(9,13)]docosa-1(20),3(22),4,6,9(21),10,12,16,18-nonaene-11-carboxylate trifluoroacetate] | IC50 [4, 11]: > 1000 nM
– | – | – | – | 0.5 nM | 0.2 nM | 0.34 nM | 4.2 nM | Cn1cnc(S(=O)(=O)Nc2ccc3cc2CCc2cccc(c2)Nc2ncc(Cl)c(n2)N3)c1 [Example B144, N-[6-Chloro-2,4,8,22-tetraazatetracyclo[14.3.1.1(3,7).1(9,13)]docosa-1(20), 3(22),4,6,9(21),10,12,16,18-nonaen-12-yl]-1-methyl-1H-imidazole-4-sulfonamide bis(trifluoroacetate)] | IC50 [4, 11]: 600 nM
– | – | – | – | 50 nM | 36 nM | 12 nM | 153 nM | O=C(Nc1ccc2cc1CCc1cncc(c1)Nc1ncc(Cl)c(n1)N2)N[C@H]1CCNC1 [Example B25, N-[6-Chloro-2,4,8,18,22-pentaazatetracyclo[14.3.1.1(3,7).1(9,13)]docosa-1(20),3(22),4,6,9(21),10,12,16,18-nonaen-12-yl]-N′-[(3S)-pyrrolidin-3-yl]urea trihydrochloride] | ALK % of inhibition at a concentration of 500 nM or 1 mM [4, 10]: 14%
– | – | – | – | 85 nM | 134 nM | 17 nM | > 200 nM | O=C(Nc1ccc2cc1CCc1cncc(c1)Nc1ncc(Cl)c(n1)N2)N1CCN(c2ccccn2)CC1 [Example B289, N-[6-Chloro-2,4,8,18,22-pentaazatetracyclo[14.3.1.1(3,7).1(9,13)]docosa-1(20),3(22),4,6,9(21),10,12,16,18-nonaen-12-yl]-4-pyridin-2-ylpiperazine-1-carboxamide tris(trifluoroacetate)] | ALK % of inhibition at a concentration of 500 nM or 1 mM [4, 10]: 65%
– | – | – | – | 6.1 nM | 1.7 nM | 1.7 nM | 9.7 nM | CC(C)(C)OC(=O)N[C@@H]1CCN(C(=O)Nc2ccc3cc2CCc2cccc(c2)Nc2ncc(Cl)c(n2)N3)C1 [Example B236, tert-Butyl [(3R)-1-({[6-chloro-2,4,8,22-tetraazatetracyclo[14.3.1.1(3,7).1(9,13)]docosa-1(20),3(22),4,6,9(21),10,12,16,18-nonaen-12-yl]amino}carbonyl)pyrrolidin-3-yl]carbamate] | ALK % of inhibition at a concentration of 500 nM or 1 mM [4, 10]: 29%
